This is an account of results in patent publication US6531453B1, “NKT cell activators containing α-glycosylceramides” (Kirin Beera Kabushiki Kaisha, priority 1997, dated 2003).

Test [1] concerns spleen cells of RAG-1KO/Vα14tg/Vβ8.2tg mice (NKT cells). The test can be described thus: Stimulation of NKT cell proliferation, [3H]thymidine incorporation in spleen cells. Type of test: cell-based, mouse. The following applies: 2 days incubation. As for the experimental part: Stimulation of NKT cell proliferation by compounds having an α-glycosylceramide structure was studied using spleen cells of RAG-1KO/Vα14tg/Vβ8.2tg mice shown in Pharmacological Test Example 1.
Spleen cells were prepared from the spleen of RAG-1KO/Vα14tg/Vβ8.2tg mice by conventional methods. These spleen cells were suspended at 2×10^6 cells/ml in an RPMI 1640 medium supplemented with 10% FCS, and 100 μl each of the suspension were plated into wells of 96-well round-bottomed plates. Ten different kinds of compounds having an α-glycosylceramide structure shown in FIG. 12 were added to the wells of the plates at a final concentration of 1, 10 or 100 ng/ml, and the plates were incubated for 2 days. Sixteen hours after the addition of [^3H] thymidine (0.5 μCi/well), the cells were harvested. The amount of [^3H] thymidine incorporated into the cells was measured by a liquid scintillation counter.
Background: Incorporation of labelled thymidine or its analogues reports DNA synthesis.

The subject of another test is Vα24+ NKT cells. The test can be described thus: Stimulation of Vα24+ NKT cell proliferation, autologous mixed leukocyte reaction with treated antigen-presenting cells. Format: cell-based, human. The following applies: antigen-presenting cells treated with 100 ng/ml, FIG. 9. As for the experimental part: Peripheral blood mononuclear cells of a normal human were cultured for 4 days in an AIM medium supplemented with 10% FCS with the addition of GM-CSF (400 U/ml), IL-4 (200 U/ml) and KRN 7000 (100 ng/ml) to prepare antigen-presenting cells.
An autologous mixed leukocyte reaction (MLR) was performed using these antigen-presenting cells as stimulator cells and autologous peripheral blood mononuclear cells as responder cells. After incubation for 10 days, IL-2 (5 U/ml) was added, incubation was continued for another 4 days, and the cells were harvested. Next, CD4, CD8 double negative cells were recovered from these harvested cells and subjected to the phenotype analysis. The phenotypic analysis was expressed by fluorescence intensity of labeled antibodies against cells having various phenotypes.
The cells were cultured using IL-2 (5 U/ml) to stimulate the proliferation of Vα24^+ NKT cells, which were used as responder cells in the following autologous mixed leukocyte reaction. Autologous peripheral blood mononuclear cells were cultured for 4 days with the addition of GM-CSF +IL-4 and 100 ng/ml of KRN 7000, AGL-583 (β-galactosylceramide, β-GalCer) or 0.1% DMSO (vehicle) to prepare antigen-presenting cells. An autologous mixed leukocyte reaction was carried out using these antigen-presenting cells as stimulator cells. […]

The test system of test [2] is 4% DSS-induced mouse colitis (CDF1 mice). The test can be described thus: Suppression of 4% DSS-induced mouse colitis. Format: in vivo. The following applies: KRN 7000 100 μg/kg i.p. days 1, 5, 9, IL-12 1 μg/mouse i.p. days 1, 3, 5, 7, 9. How it is done: Ten animals per group of CDF1 mice (6 weeks of age, females) (Japan SLC Inc.) were used for the following experiment. Day 0 was defined as the day when a 4% DSS solution (4% (w/v) dextran sodium sulfate (DSS) dissolved in water) was first provided as drinking water. The animals were divided into 3 groups, i.e., a group to which 100 μg/kg of KRN 7000 were intraperitoneally administered on days 1, 5, and 9, a group to which 1 μg/mouse of IL-12 was intraperitoneally administered on days 1, 3, 5, 7 and 9, and an untreated (control) group. Body weight was measured and survival or death of the animals were observed daily. Changes in body weight and survival rate are shown in FIG. 5A and 5B, respectively.

The next test relates to mice ((CBAxDBA/2)F1). The test can be described thus: Induction of abortion in (CBAxDBA/2)F1 mice. Type of test: in vivo, mouse. The conditions noted are these: same amount of IL-12, same manner. As for the experimental part: C57BL/6 mice (Japan SLC) were used for the following experiment. The day when a vaginal plug was observed was defined as day 0. Pregnant mice were divided into 2 groups (6 mice per group), i.e., one group to which 150 μg/kg of KRN 7000 were intravenously administered on days 7, 8 and 9, and another to which PBS (phosphate-buffered saline) was administered in the same way. On day 12, the uterus was removed to observe the state of the embryo.
IL-12 is also known to activate NKT cells. When the same amount of IL-12 was administered to mice ((CBAxDBA/2)F1) in the same manner, the resulting abortion rate was 34%.

Consider `CCCCCCCCCCCCCCCCCCCCCC[C@@H](O)C(=O)N[C@@H](CO[C@H]1O[C@H](CO)[C@H](O)[C@H](O[C@@H]2O[C@@H]([C@H](O)CO)[C@H](O)[C@H]2O)[C@H]1O)[C@H](O)[C@H](O)CCCCCCCCCCCCCC` [719-7, O-β-D-galactofuranosyl-(1→3)-O-α-D-galactopyranosyl-(1→1)-(2S,3S,4R)-2-amino-N-[(R)-2-hydroxytetracosanoyl]-1,3,4-octadecanetriol], for which the “[3H] Thymidine incorporation (cpm)” value in test [1] (1 ng/ml, vehicle 2090) was determined as 5287 cpm; in test [1] (10 ng/ml, vehicle 2056), 30179 cpm; in test [1] (100 ng/ml, vehicle 2014), 60528 cpm.
For `CCCCCCCCCCCCCCC[C@@H](O)[C@H](CO[C@H]1O[C@H](CO)[C@H](O)[C@H](O)[C@H]1O)NC(=O)CCCCCCCCCCCCC` [AGL517, (2S,3R)-1-(α-D-galactopyranosyloxy)-2-tetradecanoyl amino-3-octadecanol], the “[3H] Thymidine incorporation (cpm)” value turned out to be 3176 cpm in test [1] (1 ng/ml, vehicle 2090); 15583 cpm in test [1] (10 ng/ml, vehicle 2056); 83169 cpm in test [1] (100 ng/ml, vehicle 2014).
Regarding `CCCCCCCCCCCCCCC[C@@H](O)[C@H](CO[C@H]1O[C@H](CO)[C@@H](O)[C@H](O)[C@H]1O)NC(=O)CCCCCCCCCCCCC` [AGL563, (2S,3R)-1-(α-D-glucopyranosyloxy)-2-tetradecanoyl amino-3-octadecanol], the “[3H] Thymidine incorporation (cpm)” value in test [1] (1 ng/ml, vehicle 2090) came to 2063 cpm; in test [1] (10 ng/ml, vehicle 2056), 3773 cpm; in test [1] (100 ng/ml, vehicle 2014), 13131 cpm.
On to `CCCCCCCCCCCCCCC[C@@H](O)[C@H](CO[C@H]1O[C@H](C)[C@H](O)[C@H](O)[C@H]1O)NC(=O)CCCCCCCCCCCCC` [AGL571, (2S,3R)-1-(6′-deoxy-α-D-galactopyranosyloxy)-2-tetra decanoylamino-3-octadecanol], for which the “[3H] Thymidine incorporation (cpm)” value was 3969 cpm in test [1] (1 ng/ml, vehicle 2090); 17848 cpm in test [1] (10 ng/ml, vehicle 2056); 118092 cpm in test [1] (100 ng/ml, vehicle 2014).
On the same counts, the results for `CCCCCCCCCCCCCCC[C@@H](O)[C@H](CO[C@H]1OC[C@H](O)[C@H](O)[C@H]1O)NC(=O)CCCCCCCCCCCCC` [AGL577, (2S,3R)-1-(β-L-arabinopyranosyloxy)-2-tetradecanoyl amino-3-octadecanol] are 2083 cpm, 7792 cpm and 49701 cpm.
For `CCCCCCCCCCCCCCCCCCCCCCCCCC(=O)N[C@@H](CO[C@H]1O[C@H](CO[C@H]2O[C@H](CO)[C@H](O)[C@H](O)[C@H]2O)[C@@H](O)[C@H](O)[C@H]1O)[C@H](O)[C@H](O)CCCCCCCCCCCCCC` [AGL584, O-α-D-galactopyranosyl-(1→6)-O-α-D-glucopyranosyl-(1→1)-(2S,3S,4R)-2-amino-N-hexacosanoyl-1,3,4-octadecane triol], the “[3H] Thymidine incorporation (cpm)” value in test [1] (1 ng/ml, vehicle 2090) is on record as 29331 cpm; in test [1] (10 ng/ml, vehicle 2056), 65084 cpm; in test [1] (100 ng/ml, vehicle 2014), 96783 cpm.
On the same counts, the results for `CCCCCCCCCCCCCCCCCCCCCCCCCC(=O)N[C@@H](CO[C@H]1O[C@H](CO[C@H]2O[C@H](CO)[C@H](O)[C@H](O)[C@H]2O)[C@H](O)[C@H](O)[C@H]1O)[C@H](O)[C@H](O)CCCCCCCCCCCCCC` [AGL586, O-α-D-galactopyranosyl-(1→6)-O-α-D-galactopyranosyl-(1→1)-(2S,3S,4R)-2-amino-N-hexacosanoyl-1,3,4-octa decanetriol] are 5137 cpm, 39750 cpm and 102425 cpm.
The matching figures for `CCCCCCCCCCCCCCCCCCCCCC[C@@H](O)C(=O)N[C@@H](CO[C@H]1O[C@H](CO)[C@H](O)[C@H](O)[C@H]1O[C@H]1O[C@H](CO)[C@H](O)[C@H](O)[C@H]1O)[C@H](O)[C@H](O)CCCCCCCCCCCCCC` [S1140B-9, O-α-D-galactopyranosyl-(1→2)-O-α-D-galactopyranosyl-(1→1)-(2S,3S,4R)-2-amino-N-[(R)-2-hydroxytetracosanoyl]-1,3,4-octadecanetriol]: 3387 cpm, 10265 cpm and 49520 cpm.
On to `CCCCCCCCCCCCCCCCCCCCCC[C@@H](O)C(=O)N[C@@H](CO[C@H]1O[C@H](CO)[C@H](O)[C@H](O[C@H]2O[C@H](CO)[C@H](O)[C@H](O)[C@H]2NC(C)=O)[C@H]1O[C@H]1O[C@H](CO)[C@@H](O)[C@H](O)[C@H]1O)[C@H](O)[C@H](O)CCCCCCCCCCCCCC` [STL-8], for which the “[3H] Thymidine incorporation (cpm)” value in test [1] (1 ng/ml, vehicle 2090) was found to be 4761 cpm; in test [1] (10 ng/ml, vehicle 2056) it was 26474 cpm; in test [1] (100 ng/ml, vehicle 2014), 47141 cpm.
“β-galactosylceramide [reference compound]”: in the test on Vα24+ NKT cells, the “effect of treated antigen presenting cells on Vα24+ NKT cell proliferation ([3H]thymidine uptake)” value is reported as “no effect”.

B1: IL-12: interleukin 12 (IL-12), known to activate NKT cells (protein, UniProt P29459 23-219; P29460 23-328, looked up)
Interleukin-12 subunit alpha: RNLPVATPDPGMFPCLHHSQNLLRAVSNMLQKARQTLEFYPCTSEEIDHEDITKDKTSTVEACLPLELTKNESCLNSRETSFITNGSCLASRKTSFMMALCLSSIYEDLKMYQVEFKTMNAKLLMDPKRQIFLDQNMLAVIDELMQALNFNSETVPQKSSLEEPDFYKTKIKLCILLHAFRIRAVTIDRVMSYLNAS
Interleukin-12 subunit beta: IWELKKDVYVVELDWYPDAPGEMVVLTCDTPEEDGITWTLDQSSEVLGSGKTLTIQVKEFGDAGQYTCHKGGEVLSHSLLLLHKKEDGIWSTDILKDQKEPKNKTFLRCEAKNYSGRFTCWWLTTISTDLTFSVKSSRGSSDPQGVTCGAATLSAERVRGDNKEYEYSVECQEDSACPAAEESLPIEVMVDAVHKLKYENYTSSFFIRDIIKPDPPKNLQLKPLKNSRQVEVSWEYPDTWSTPHSYFSLTFCVQVQGKSKREKKDRVFTDKTSATVICRKNASISVRAQDRYYSSSWSEWASVPCS
For the molecule B1, the “time of weight loss as compared with the control group” value in test [2] (FIG. 5A) was “at an extremely early period”. Besides, the “survival period as compared with the control group” value in test [2] (FIG. 5B) is listed as “significantly shorter”. The abortion rate with mice ((CBAxDBA/2)F1) is 34%.
